Experimental data: ChEMBL document CHEMBL1255529, “Design, synthesis, and anticancer activities of novel perfluoroalkyltriazole-appended 2'-deoxyuridines” (Bioorg Med Chem Lett, 2010)

Columns and labels:
ACHN = assay: Anticancer activity against human ACHN cells by SRB assay; assay type: functional; details: for GI50: Homo sapiens, ACHN
MDA-MB-231 = assay: Anticancer activity against human MDA-MB-231 cells by SRB assay; assay type: functional; details: for GI50: Homo sapiens, MDA-MB-231
PC-3 = assay: Anticancer activity against human PC3 cells by SRB assay; assay type: functional; details: for GI50: Homo sapiens, PC-3
[1] = Antiproliferative activity against human CCD-33Lu

SMILES	GI (ACHN) [µM]	GI (MDA-MB-231) [µM]	GI (PC-3) [µM]	GI50 (ACHN) [nM]	GI50 (MDA-MB-231) [nM]	GI50 (PC-3) [nM]	Activity [1]
CC(=O)OC[C@H]1O[C@@H](n2cc(-c3cn(CCC(F)(F)C(F)(F)C(F)(F)C(F)(F)C(F)(F)C(F)(F)F)nn3)c(=O)[nH]c2=O)C[C@@H]1OC(C)=O	113.8	99.4	89.4	–	–	–	–
CC(=O)OC[C@H]1O[C@@H](n2cc(-c3cn(CCC(F)(F)C(F)(F)C(F)(F)C(F)(F)C(F)(F)C(F)(F)C(F)(F)C(F)(F)F)nn3)c(=O)[nH]c2=O)C[C@@H]1OC(C)=O	110.8	99.1	77.9	–	–	–	–
O=c1[nH]c(=O)n([C@H]2C[C@H](O)[C@@H](CO)O2)cc1-c1cn(CCC(F)(F)C(F)(F)C(F)(F)C(F)(F)C(F)(F)C(F)(F)F)nn1	99.3	106.5	114.5	–	–	–	–
O=c1[nH]c(=O)n([C@H]2C[C@H](O)[C@@H](CO)O2)cc1-c1cn(CCC(F)(F)C(F)(F)C(F)(F)C(F)(F)C(F)(F)C(F)(F)C(F)(F)C(F)(F)F)nn1	14.2	15.9	16.7	8240	8670	7750	Non-toxic
O=c1[nH]c(=O)n([C@H]2C[C@H](O)[C@@H](CO)O2)cc1-c1cn(CCC(F)(F)C(F)(F)C(F)(F)C(F)(F)C(F)(F)C(F)(F)C(F)(F)C(F)(F)C(F)(F)C(F)(F)F)nn1	90.8	93.7	89.4	–	–	–	–
O=c1[nH]c(=O)n([C@H]2C[C@H](O)[C@@H](CO)O2)cc1-c1cn(CCC(F)(F)C(F)(F)F)nn1	96.1	98.7	96.4	–	–	–	–
O=c1[nH]c(=O)n([C@H]2C[C@H](O)[C@@H](CO)O2)cc1-c1cn(CCC(F)(F)C(F)(F)C(F)(F)C(F)(F)F)nn1	116	109.7	97.8	–	–	–	–
COc1cccc2c1C(=O)c1c(O)c3c(c(O)c1C2=O)C[C@@](O)(C(=O)CO)C[C@@H]3O[C@H]1C[C@H](N)[C@H](O)[C@H](C)O1 [DOXORUBICIN]	12.3	16.5	28.5	220	180	280	–
O=c1[nH]c(=O)n([C@H]2C[C@H](O)[C@@H](CO)O2)cc1F [FLOXURIDINE]	25.8	–	40.7	2100	160	4970	–
